# Experimental data reported in US20210179853A1, “DRUG THAT REACTS WITH ACROLEIN, USE THEREOF AND NOVEL COMPOUND” (RIKEN, priority 2018, published 2021).
# Tests used:
# [1] = system: acrolein that is generated from a cell; experiment: Sensitivity comparison with conventional detection reagent: staining of normal and cancer cells; assay type: cell-based, human; details: for acrolein concentration level that can be detected: acrolein generated from a cell, suggested from FIG. 3 staining; for identification of localization and morphology of a cancer cell: at a low reagent concentration (0.25-1.5 μM, 5 minutes)
# Experimental: Respective detection sensitivities of a detection reagent (TAMRA-PhN3) represented by Formula below and the compound 7 (TAMRA-di-iPr-PhN3) prepared in Example 1 were compared. Cells illustrated in FIG. 3 (for description of cell strains, see also Reference Example 1) were each immersed in an aqueous solution, containing the detection reagent at a concentration of 0.25 μM, 0.75 μM, or 1.5 μM, for 5 minutes so as to be stained.
# [2] = system: acrolein; experiment: Selective detection of acrolein: fluorescence staining of 11 normal and cancer cell lines; assay type: cell-based, human; details: 2.5-22.5 μM, 30 minutes at room temperature, with a higher concentration; FIG. 1
# Experimental: The following 11 cell lines were seeded in 96 wells (4×10^4 cells/well) and left to stand for 24 hours before treatment so that the cell lines were adhered to the wells.
# Normal cell: normal human diploid fibroblast (TIG3), normal human umbilical vein endothelial cell (HUVEC), normal human mammary gland cell (MCF10A)
# Cancer cell: SKBR3 (human breast cancer cell), MDA-MB-231 (human breast cancer cell), BxPC3 (human pancreatic cancer cell), HT29 (human colonic cancer cell), MCF7 (human breast cancer cell), A549 (human lung cancer cell), HeLaS3 (human cervical cancer cell), PC3 (human prostatic cancer cell)
# The cells were treated by adding, to media, 100 μL of TAMRA-PhN3 solutions (2.5 μM, 7.5 μM, 12.5 μM, 17.5 μM, 22.5 μM) described in Non-patent Literature 1 and Example 2. Then, the cells were incubated at room temperature for 30 minutes. The cells were fixed by paraformaldehyde, and fluorescence was recorded with use of Spectra Max M2e (Molecular Devices, LLC.).
# In FIG. 1, the vertical axis represents a relative fluorescence intensity (arbitrary unit), and the horizontal axis represents a result of staining (fluorescence) of each normal or cancer cell.
# [3] = system: invasive ductal carcinoma-positive, ductal carcinoma in situ-positive and cancer-negative tissue; experiment: Staining of cancer tissue in a living tissue state; assay type: cell-based; details: 5, 10, 20 μM, 5 minutes at room temperature; FIG. 2
# Experimental: An invasive ductal carcinoma-positive tissue (IDC-positive), a ductal carcinoma in situ-positive tissue (DCIS-positive), and a cancer-negative tissue (Cancer-negative) were each immersed in a TAMRA-PhN3 solution (5 μM, 10 μM, 20 μM). These tissues were incubated at room temperature for 5 minutes. The tissues were each stained in a living tissue state. […] Note that cell nuclei are stained with DAPI.
# In FIG. 2, “Eyesight” indicates a photograph of each tissue that has been stained, and “Microscopy (×1)”, “Microscopy (×200)”, and “Microscopy (×400)” each indicate results of observations carried out with use of microscopes having respective magnifications of 1 time, 200 times, and 400 times.
Compound,acrolein concentration level that can be detected [1],identification of localization and morphology of a cancer cell [1],"detection sensitivity relative to TAMRA-PhN3 ([1]; cells immersed in aqueous solution of reagent at 0.25, 0.75 or 1.5 μM for 5 minutes, FIG. 3)",reaction product with acrolein (relative fluorescence intensity) [2],observation of localization and morphology of a cancer cell in a living tissue [3]
"CC(C)c1cc(CNC(=O)c2ccc(-c3c4ccc(=[N+](C)C)cc-4oc4cc(N(C)C)ccc34)c(C(=O)[O-])c2)cc(C(C)C)c1N=[N+]=[N-] [compound 7, 5-carboxymethylrhodamine-diisopropylphenylazide]",pM level,possible to identify localization and morphology of a cancer cell,not less than 100 times,–,–
CN(C)c1ccc2c(-c3ccc(C(=O)NCc4ccc(N=[N+]=[N-])cc4)cc3C(=O)[O-])c3ccc(=[N+](C)C)cc-3oc2c1 [TAMRA-PhN3],nM-level,cannot be identified,–,increase in reaction product (fluorescence intensity),possible to observe localization and morphology of a cancer cell in detail in a living tissue
